Measurements reported in patent US9371328B2, “Imidazopyridazinecarbonitriles useful as kinase inhibitors” (BRISTOL-MYERS SQUIBB COMPANY, priority 2008, dated 2016).
Where two headings read alike, the source gives them in different places.

Tests used:
HCT116 = assay: Cell proliferation inhibition assay (MTT/MTS); assay type: cell-based; details: Homo sapiens, HCT-116, Table 1, 72 h with compound
Experimental: Compounds were evaluated for their ability to inhibit cell proliferation, using an assay that measures mitochondrial metabolic activity, that is directly correlated with cell numbers. Cells were plated at 2000 cells/well in 96-well plates and were cultured for 24 h in RPMI-1640 supplemented with 2% fetal bovine serum, before test compounds were added. Compounds were diluted in culture medium such that the final concentration of dimethyl sulfoxide never exceeded 1%. Following the addition of compounds, the cells were cultured for an additional 72 h before cell viability was determined by measuring the conversion of 3-(4,5-dimethylthiazol-2-yl)-2,5-diphenyltetrazolium bromide (MTT) dye using the CellTiter96 kit (Promega) or by measuring the conversion of [3-(4,5-dimethylthiazol-2-yl)-5-(3-carboxymethoxyphenyl)-2-(4-sulfophenyl)-2H-tetrazolium (MTS) dye using the CELLTITER 96® AQueous (Promega).

CK2A2 (CK2α′/β) = target: T1, CK2A2 (CK2α′/β) (Homo sapiens, UniProt P19784); assay: CK2 kinase assay, CK2A2 (CK2α′/β); assay type: biochemical
T1 construct: made in house
T1 sequence (P19784 whole entry, species assumed): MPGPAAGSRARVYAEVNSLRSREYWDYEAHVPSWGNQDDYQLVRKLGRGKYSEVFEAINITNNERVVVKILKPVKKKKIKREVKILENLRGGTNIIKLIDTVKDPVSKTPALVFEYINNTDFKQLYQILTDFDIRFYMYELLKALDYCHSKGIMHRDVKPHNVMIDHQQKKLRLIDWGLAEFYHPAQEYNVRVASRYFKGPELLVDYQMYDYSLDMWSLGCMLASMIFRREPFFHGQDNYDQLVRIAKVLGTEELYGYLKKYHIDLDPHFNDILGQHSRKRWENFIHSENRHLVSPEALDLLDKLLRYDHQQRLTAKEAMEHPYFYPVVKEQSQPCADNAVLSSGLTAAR
T1 sequence (P67870 whole entry partner, species assumed): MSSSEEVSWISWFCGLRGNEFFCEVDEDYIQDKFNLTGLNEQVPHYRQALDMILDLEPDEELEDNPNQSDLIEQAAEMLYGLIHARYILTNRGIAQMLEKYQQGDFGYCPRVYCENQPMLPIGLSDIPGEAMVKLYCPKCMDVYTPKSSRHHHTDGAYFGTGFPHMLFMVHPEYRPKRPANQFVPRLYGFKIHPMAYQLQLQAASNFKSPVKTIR
Experimental: (§1) The effectiveness of compounds of the present invention as inhibitors of protein kinases can be readily tested by assays known to those skilled in the art. For example, in vitro protein kinase assays may be conducted with a relevant purified protein kinase and an appropriate synthetic substrate to determine the inhibitory activity of the compounds. […] Reaction mixtures were incubated at 30° C. for 1 hour, and reaction products were captured by binding to phosphocellulose (P81) filter plates. Incorporation of radioactive phosphate into the peptide substrate was determined by liquid scintillation counting. The potency of compounds in inhibiting CK2 is expressed as IC50, defined as the concentrations of compounds required to inhibit the enzymatic activity by 50%.
(§2) The inhibitory activity of the instant compounds may also be measured by recombinant CK2 holoenzyme kinase assays. The assays were performed in U-bottom 384-well plates. The final assay volume was 30 μl prepared from 15 μl additions of enzyme and substrates (fluoresceinated peptide FL-RRRADDSDDDDD-NH2 and ATP) and test compounds in assay buffer (20 mM HEPES pH 7.4, 10 mM MgCl2, 100 mM NaCl, 0.015% Brij35 and 0.25 mM DTT). The reaction was initiated by the combination of bacterially expressed, CK2 α/β or CK2 α′/β holoenzyme with substrates and test compounds. The reaction was incubated at room temperature for 60 minutes and terminated by adding 30 μl of 35 mM EDTA to each sample. The reaction mixture was analyzed on the Caliper LABCHIP® 3000 (Caliper, Hopkinton, Mass.) by electrophoretic separation of the fluorescent substrate and phosphorylated product. Inhibition data were calculated by comparison to no enzyme control reactions for 100% inhibition and vehicle-only reactions for 0% inhibition. The final concentration of reagents in the CK2 α/β assay was 25 μM ATP, 1.5 μM FL-RRRADDSDDDDD-NH2, […] CK2 α/β holoenzyme, and 1.6% DMSO. The final concentration of reagents in the CK2 α′/β assay was 10 μM ATP, 1.5 μM FL-RRRADDSDDDDD-NH2, 100 pM CK2 α′/β holoenzyme, and 1.6% DMSO. Dose response curves were generated to determine the concentration required inhibiting 50% of kinase activity (IC50). Compounds were dissolved at 10 mM in dimethylsulfoxide (DMSO) and evaluated at eleven concentrations. IC50 values were derived by non-linear regression analysis.

CK2A1 (CK2α/β) = target: T2, CK2A1 (CK2α/β) (Homo sapiens, UniProt P68400); assay: CK2 kinase assay, CK2A1 (CK2α/β); assay type: biochemical
T2 construct: made in house
T2 sequence (P68400 whole entry, species assumed): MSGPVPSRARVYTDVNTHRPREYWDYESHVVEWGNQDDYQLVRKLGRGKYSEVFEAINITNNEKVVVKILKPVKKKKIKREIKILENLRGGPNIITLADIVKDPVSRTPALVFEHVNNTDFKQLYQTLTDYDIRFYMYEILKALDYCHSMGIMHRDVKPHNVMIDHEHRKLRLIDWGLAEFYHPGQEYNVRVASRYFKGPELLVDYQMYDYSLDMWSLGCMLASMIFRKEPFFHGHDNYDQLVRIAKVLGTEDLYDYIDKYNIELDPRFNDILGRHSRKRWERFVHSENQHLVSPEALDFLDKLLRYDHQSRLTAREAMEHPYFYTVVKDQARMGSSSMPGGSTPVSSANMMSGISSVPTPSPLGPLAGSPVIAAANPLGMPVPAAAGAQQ
T2 sequence (P67870 whole entry partner, species assumed): as the sequence (P67870 whole entry partner, species assumed) above
Experimental: as §1, §2

[1] = Table 1, read-out: CK2A2 (CK2α′/β) (IC50)
[2] = Table 1, read-out: CK2A1 (CK2α/β) (IC50)
[3] = Table 2, comparison compounds of US 2008/0045536, read-out: CK2A1 IC50
[4] = Table 2, comparison compounds of US 2008/0045536, read-out: CK2A2 IC50

| SMILES | IC50 (HCT116) [nM] | IC50 (CK2A2 (CK2α′/β); [1]) [nM] | IC50 (CK2A1 (CK2α/β); [2]) [nM] | IC50 (CK2A1 (CK2α/β); [3]) [nM] | IC50 (CK2A2 (CK2α′/β); [4]) [nM] |
| --- | --- | --- | --- | --- | --- |
| Cc1cc(O)nc2cc(Nc3cc(NC4CC4)c4ncc(C#N)n4n3)ccc12 [Example 58, 8-(Cyclopropylamino)-6-((4-methyl-2-oxo-1,2-dihydro-7-quinolinyl)amino)imidazo[1,2-b]pyridazine-3-carbonitrile] | 98 | 2.2 | 12.2 | – | – |
| COC(=O)Nc1cc(Nc2cc(NC3CC3)c3ncc(C#N)n3n2)ccc1C(=O)N1CCN(C)CC1 [Example 93, Methyl (5-((3-cyano-8-(cyclopropylamino)imidazo [1,2-b]pyridazin-6-yl)amino)-2-((4-methyl-1-piperazinyl)carbonyl)phenyl) carbamate] | > 1000 | 68.4 | 712 | – | – |
| COc1ccc(Nc2cc(Nc3ccc(OC(F)(F)F)c(-n4cnnc4)c3)nn3c(C#N)cnc23)nc1 [Example 111, 8-((5-Methoxy-2-pyridinyl)amino)-6-((3-(4H-1,2,4-triazol-4-yl)-4-(trifluoromethoxy)phenyl)amino)imidazo[1,2-b] pyridazine-3-carbonitrile] | 34 | 24 | 116 | – | – |
| CCOc1ccc(Nc2cc(N[C@H]3CC[C@H](N)CC3)nn3ccnc23)cc1 [I(1), reference compound] | – | – | – | > 50000 | – |
| COc1ccc(C#N)cc1Nc1cc(N)c2ncc(C#N)n2n1 [Example 228, 8-Amino-6-((5-cyano-2-methoxyphenyl)amino) imidazo[1,2-b]pyridazine-3-carbonitrile] | 327 | 1.7 | 9 | – | – |
| Cc1ccc(Nc2cc(NC3CC3)c3ncc(C#N)n3n2)cc1CC(=O)O [Example 224, (5-((3-Cyano-8-(cyclopropylamino)imidazo [1,2-b]pyridazin-6-yl)amino)-2-methylphenyl) acetic acid] | > 10000 | 126 | 794 | – | – |
| CCN(CC)c1ccc(Nc2cc(NC3CC3)c3ncc(C#N)n3n2)cc1 [Example 244, 8-(Cyclopropylamino)-6-((4-(diethylamino)phenyl)amino)imidazo[1,2-b]pyridazine-3-carbonitrile] | 1110 | 22.8 | 102 | – | – |
| Cc1cc(Cl)c(Nc2cc(Nc3ccccn3)c3ncc(C#N)n3n2)cc1C#N [Example 233, 6-((2-Chloro-5-cyano-4-methylphenyl)amino)-8-(2-pyridinylamino)imidazo[1,2-b]pyridazine-3-carbonitrile] | 128 | 2.3 | 7.1 | – | – |
| Cc1cc(Cl)c(Nc2cc(NC3CC3)c3ncc(C#N)n3n2)cc1C#N [Example 225, 6-((2-Chloro-5-cyano-4-methylphenyl)amino)-8-(cyclopropylamino)imidazo [1,2-b]pyridazine-3-carbonitrile] | 35 | 1.1 | 8.2 | – | – |
| Cn1cnnc1-c1cccc(Nc2cc(NC3CC3)c3ncc(C#N)n3n2)c1 [Example 48, 8-(Cyclopropylamino)-6-((3 - (4-methyl-4H-1,2,4-triazol-3-yl)phenyl)amino) imidazo[1,2-b]pyridazine-3-carbonitrile] | 460 | 106 | 417 | – | – |
| N#Cc1cnc2c(NC3CC3)cc(Nc3cc(-n4cncn4)ccc3OC(F)(F)F)nn12 [Example 167, 8-(Cyclopropylamino)-6-((5-(1H-1,2,4-triazol-1-yl)-2-(trifluoromethoxy)phenyl)amino)imidazo[1,2-b]pyridazine-3-carbonitrile] | > 1000 | 12.5 | 103 | – | – |
| Cc1nc(-c2cccc(Nc3cc(NC4CC4)c4ncc(C#N)n4n3)c2)cs1 [Example 80, 8-(Cyclopropylamino)-6-((3-(2-methyl-1,3-thiazol-4-yl)phenyl)amino)imidazo[1,2-b]pyridazine-3-carbonitrile] | > 1000 | 1490 | 4660 | – | – |
| N#Cc1ccc(Cl)c(Nc2cc(NC3CC3)c3ncc(C#N)n3n2)c1 [Example 47, 6-((2-Chloro-5-cyanophenyl)amino)-8-(cyclopropylamino) imidazo[1,2-b]pyridazine-3-carbonitrile] | 41 | 5.2 | 7.4 | – | – |
| N#Cc1cnc2c(NC3CC3)cc(Nc3cccc(-c4cccnc4)c3)nn12 [Example 214, 8-(Cyclopropylamino)-6-((3-(3-pyridinyl)phenyl)amino) imidazo[1,2-b]pyridazine-3-carbonitrile] | > 10000 | 119 | 596 | – | – |
| CCc1ccc(Nc2cc(NC3CC3)c3ncc(C#N)n3n2)cc1NS(C)(=O)=O [Example 235, N-(5-((3-Cyano-8-(cyclopropylamino)imidazo [1,2-b]pyridazin-6-yl)amino)-2-ethylphenyl) methanesulfonamide] | 433 | 6.4 | 25 | – | – |
| N#Cc1cnc2c(NC3CC3)cc(Nc3cccc(N4CCCC4=O)c3)nn12 [Example 73, 8-(Cyclopropylamino)-6-((3-(2-oxo-1-pyrrolidinyl)phenyl)amino)imidazo[1,2-b]pyridazine-3-carbonitrile] | 2240 | 738 | 4600 | – | – |
| Cc1c(N[C@H]2CC[C@H](N)CC2)nn2c(C#N)cnc2c1Nc1ccccc1 [XXV(1), reference compound] | – | – | – | 2690 | 8090 |
| COC(=O)Nc1cc(Nc2cc(NC3CC3)c3ncc(C#N)n3n2)ccc1C [Example 95, Methyl (5-((3-cyano-8-(cyclopropylamino)imidazo [1,2-b]pyridazin-6-yl)amino)-2-methylphenyl) carbamate] | 22 | 3 | 6.5 | – | – |
| CC(C)C(=O)Nc1cccc(Nc2cc(NC3CC3)c3ncc(C#N)n3n2)c1 [Example 66, N-(3-((3-Cyano-8-(cyclopropylamino)imidazo [1,2-b]pyridazin-6-yl)amino)phenyl)-2-methylpropanamide] | > 2500 | 778 | 6060 | – | – |
| N[C@H]1CC[C@H](Nc2cc(Nc3ccccc3)c3nccn3n2)CC1 [I(7), reference compound] | – | – | – | > 50000 | > 50000 |
| COc1ccc(-n2cncn2)cc1Nc1cc(NC2CC2)c2ncc(C#N)n2n1 [Example 160, 8-(Cyclopropylamino)-6-((2-methoxy-5-(1H-1,2,4-triazol-1-yl)phenyl)amino)imidazo [1,2-b]pyridazine-3-carbonitrile] | 45 | 4.6 | 19.7 | – | – |
| Cc1ccc(Nc2cc(Nc3ccccn3)c3ncc(C#N)n3n2)cc1C#N [Example 196, 6-((3-Cyano-4-methylphenyl)amino)-8-(2-pyridinylamino)imidazo[1,2-b]pyridazine-3-carbonitrile] | 65 | 3.4 | 12.2 | – | – |
| N#Cc1cnc2c(NC3CC3)cc(Nc3cccc(C(N)=O)c3)nn12 [Example 71, 3-((3-Cyano-8-(cyclopropylamino)imidazo [1,2-b]pyridazin-6-yl)amino) benzamide] | 945 | 15.6 | 261 | – | – |
| CN1CCN(C(=O)c2ccc(Nc3cc(NC4CC4)c4ncc(C#N)n4n3)cc2N)CC1 [Example 89, 6-((3-Amino-4-((4-methyl-1-piperazinyl)carbonyl)phenyl)amino)-8-(cyclopropylamino)imidazo [1,2-b]pyridazine-3-carbonitrile] | > 1000 | 940 | 6670 | – | – |
| Cc1ccc(Nc2cc(N[C@H]3CC[C@H](N)CC3)nn3ccnc23)nc1 [II(16), reference compound] | – | – | – | > 50000 | 31800 |
